Assay results taken from US20030158089A1, “Administrative agents via the SMVT transporter” (priority 2002, published 2003).
Read-outs that look alike come from different tables or passages of the source.

How the values were obtained:
hSMVT = target: T1, hSMVT (Homo sapiens, UniProt Q9Y289); assay: Radiolabeled competition assay in SMVT-expressing CHO cells; type: cell-based
T1 sequence (Q9Y289 1-635): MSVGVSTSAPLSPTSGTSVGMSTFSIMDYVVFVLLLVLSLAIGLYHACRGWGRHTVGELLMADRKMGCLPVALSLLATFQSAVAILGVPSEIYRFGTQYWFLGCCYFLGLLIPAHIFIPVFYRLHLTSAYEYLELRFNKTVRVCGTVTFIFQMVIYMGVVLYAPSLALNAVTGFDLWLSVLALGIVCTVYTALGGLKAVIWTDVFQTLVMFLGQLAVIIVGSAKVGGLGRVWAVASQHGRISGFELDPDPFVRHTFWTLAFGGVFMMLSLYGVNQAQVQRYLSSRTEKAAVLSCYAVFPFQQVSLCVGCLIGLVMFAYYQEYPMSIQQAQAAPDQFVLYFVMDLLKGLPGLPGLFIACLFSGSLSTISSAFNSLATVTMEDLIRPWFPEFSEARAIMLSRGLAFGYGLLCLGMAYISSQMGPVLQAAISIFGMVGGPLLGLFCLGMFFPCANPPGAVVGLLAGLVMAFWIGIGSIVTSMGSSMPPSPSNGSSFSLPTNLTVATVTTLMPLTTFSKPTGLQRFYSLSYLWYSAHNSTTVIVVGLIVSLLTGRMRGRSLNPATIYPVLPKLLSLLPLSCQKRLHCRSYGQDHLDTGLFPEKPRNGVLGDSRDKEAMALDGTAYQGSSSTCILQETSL
Text: The complete open reading frame of human SMVT (SLC5A6) was amplified from human cDNA prepared from intestinal mRNA. Gene-specific oligonucleotide primers were designed against Genbank sequences (NM-021095). Amplified PCR products were cloned into a modified version of the mammalian expression vector pcDNA3 (termed pMO) that was engineered to contain the 5′ and 3′ untranslated regions from the Xenopus beta-globin gene. All clones were completely sequenced and tested for function by transient transfection in HEK293 cells.
Stable clones of CHOK1 cells were obtained by electroporation, selection in G418, and single cell sorting using FACS ([…] cell sorting, Cytomation). Stable clones expressing SMVT were identified by enhanced uptake of radiolabeled substrates. For cell uptake studies, stable CHOK1 clones were seeded into polylysine coated 96-well microtiter plates and grown for 2-3 days. Cells were incubated with experimental solutions (combinations of radiolabeled and unlabeled compounds) for 30 minutes at room temperature, washed four times, and lysed in scintillation solution. Accumulation of radiolabeled molecules was measured in a microtiter scintillation plate reader (Perkin Elmer). Inhibition constants (IC50s) were calculated using curve-fitting software (Prism).

human SMVT (SLC5A6) = target: T2, human SMVT (SLC5A6) (Homo sapiens, UniProt Q9Y289); assay: Two-electrode voltage-clamp transport currents in SMVT-expressing Xenopus oocytes; type: cell-based; details: for Vmax as a % of Biotin Vmax: % max response relative to biotin, transporter-expressing oocytes, test compound 0.5 mM
T2 construct: The complete open reading frame of human SMVT (SLC5A6) was amplified; expressed in transfected cells; host or cells: Xenopus oocytes injected with 10-30 ng cRNA transcribed from the pMO plasmid
T2 sequence (Q9Y289 1-635): T1 sequence (Q9Y289 1-635)
Text: “Vmax” and “KM” of a compound for a transporter (e.g., the SMVT transporter) are defined in accordance with convention. Vmax is the number of molecules of compound transported per unit time at saturating concentration of the compound. KM is the concentration of the compound at which the compound is transported at half of Vmax. In general, a high value Of Vmax is desirable for a substrate of a transporter. A low value of KM is desirable for transport of low concentrations of a compound, and a high value of KM is desirable for transport of high concentrations of a compound. Vmax is affected both by the intrinsic turnover rate of a transporter (molecules/transporter protein) and transporter density in plasma membrane that depends on expression level. For these reasons, the intrinsic capacity of a compound to be transported by a particular transporter is usually expressed as the ratio (or percent) of the Vmax of the compound/Vmax of a control compound known to be a substrate for the transporter.
cRNA for oocyte expression was prepared by linearization of plasmid cDNA and in vitro transcription using T7 polymerase (Epicentre Ampliscribe kit). Xenopus oocytes were prepared and maintained as previously described (Collins et al., PNAS […]:5456-5460 (1997)) and injected with 10-30 ng RNA. Transport currents were measured 2-6 days later using two-electrode voltage-clamp (Axon Instruments). All experiments were performed using a modified oocyte ringers solution (90 mM NaCl, 2 mM KCl, 1.8 mM CaCl2, 1 mM MgCl2, and 10 mM NaHEPES, pH 7.4; in Na^+-free solutions […] choline chloride was substituted for NaCl). The membrane potential of oocytes was held at −60 mV and current traces acquired using PowerLab software (ADInstruments). Full 7-concentration dose-responses were performed for each compound. […] Half-maximal concentrations were calculated using non-linear regression curve fitting software (Prism) with the Hill co-efficient fixed to 1. To ensure that currents were specific for the over-expressed transporter, all compounds were tested against uninjected oocytes.

[1] = rat, 2 μM
Experimental: (§1) The stability of conjugates were evaluated in one or more in vitro systems using a variety of tissue preparations following methods known in the art. […] Each preparation was incubated with test compound at 37° C. for one hour. Aliquots (50 μL) were removed at 0, 30, and 60 min and quenched with 0.1% trifluoroacetic acid in acetonitrile. Samples were then centrifuged and analyzed by LC/MS/MS.

[2] = rat, 2 μM, pH 7.4
Experimental: as §1

[3] = In vitro cleavage of conjugate in rat liver S9; details: Rat Liver S9 (0.5 mg/mL), NADPH, 37° C, 2.0 μM
Experimental: as §1

[4] = In vitro cleavage of conjugate in human plasma; details: 37° C, 2.0 μM
Experimental: as §1

[5] = In vitro cleavage of conjugate in rat plasma; details: 37° C, 2.0 μM
Experimental: as §1

[6] = In vitro cleavage of conjugate in human liver S9; details: Human Liver S9 (0.5 mg/mL), NADPH, 37° C, 2.0 μM
Experimental: as §1

Pancreatin = Pancreatin stability; type: in vitro ADME, porcine; details: 1 % (w/v) pancreatin, pH 7.5, 37° C, 5 μM
Experimental: Pancreatin Stability: Stability studies were conducted by incubating conjugate (5 μM) with 1 % (w/v) pancreatin (Sigma, P-1625, from porcine pancreas) in 0.025 M Tris buffer containing 0.5 M NaCl (pH 7.5) at 37° C. for 60 min. The reaction was stopped by addition of 2 volumes of methanol. After centrifugation at 14,000 rpm for 10 min, the supernatant was removed. and analyzed by LC/MS/MS.

[7] = Caco-2 homogenate S9 stability; type: in vitro ADME; details: Caco-2 S9 (0.5 mg protein per mL), 37° C, 5 μM
Experimental: Caco-2 Homogenate S9 Stability: Caco-2 cells were grown for 21 days prior to harvesting. Culture medium was removed and cell monolayers were rinsed and scraped off into ice-cold 10 mM sodium phosphate/0.15 M potassium chloride, pH 7.4. Cells were lysed by sonication at 4° C. using a probe sonicator. Lysed cells were then transferred into 1.5 mL centrifuge vials and centrifuged at 9000 g for 20 min at 4° C. The resulting supernatant (Caco-2 cell homogenate S9 fraction) was aliquoted into 0.5 mL vials and stored at −80° C. until used.
For stability studies, conjugate (5 μM) was incubated in Caco-2 homogenate S9 fraction (0.5 mg protein per mL) for 60 min at 37° C. Concentrations of intact conjugate and released drug were determined at zero time and 60 minutes using LC/MS/MS.

human or rat SMVT = details: voltage-clamped Xenopus oocytes; cited from earlier work
in vivo = details: male, Sprague-Dawley, rat, po
Experimental: Test compounds were administered as an intravenous bolus injection or by oral gavage to groups of four to six adult male Sprague-Dawley rats (weight approx 250 g) as solutions in water or water/ethanol (90:10). The doses ranged between 10 and 200 mg per kg body weight (i.e. 0.04-0.8 mmole/kg). Animals were fasted overnight before the study and for 4 hours post-dosing. Blood samples (1.0 mL) were obtained via a jugular vein cannula at intervals over 24 hours after oral dosing. Blood was processed immediately for plasma and plasma was frozen at −80° C. until analyzed.
Concentrations of test compound in plasma were determined using an API 2000 LC/MS/MS instrument equipped with an Agilent 1100 binary pump and an Agilent autosampler. The column was a Zorbax XDB C8 4.6*150 mm column at room temperature. The mobile phases were 0.1% formic acid (A) and acetonitrile with 0.1% formic acid (B). The gradient condition was: 5% B for 1 min, increasing to 98% B in 3 min and maintained for 2.5 min. […] The peaks were integrated using Analyst 1.1 quantitation software.
Oral bioavailability (F) was determined by comparison of the area under the concentration versus time curve (AUC) following oral administration of the conjugate or intravenous administration of the parent agent at equimolar doses.

[8] = radiolabeled competition assay in SMVT-expressing CHO cells, read-out: IC50

## CC(C)(C)C(=O)OCOC(=O)NCC1(CC(=O)O)CCCCC1 [(1), 1-{[(α-Pivaloyloxymethoxy)carbonyl]aminomethyl}-1-Cyclohexane Acetic Acid]
hSMVT; [8]
  IC50: 450 µM
Human SMVT (SLC5A6)
  Vmax as a % of Biotin Vmax: 21%

## CC(OC(=O)NCC1(CC(=O)O)CCCCC1)OC(=O)C(C)C (stereo not drawn) [(6), 1-{[(α-Isobutanoyloxyethoxy)carbonyl]aminomethyl}-1-Cyclohexane Acetic Acid]
[1]
  % of Drug Released from Conjugate after 60 min: 23%
hSMVT; [8]
  IC50: 100 µM
Human SMVT (SLC5A6)
  Vmax as a % of Biotin Vmax: 46%
[2]
  % of Drug Released from Conjugate after 60 min: 52%

## CCC(=O)OC(OC(=O)NCC1(CC(=O)O)CCCCC1)C(C)C (stereo not drawn) [(9), 1-{[(α-Propanoyloxyisobutoxy)carbonyl]aminomethyl}-1-Cyclohexane Acetic Acid]
[3]
  % of Drug Released from Conjugate after 60 min: 62%
[4]
  % of Drug Released from Conjugate after 60 min: 7%
[5]
  % of Drug Released from Conjugate after 60 min: 69%
[6]
  % of Drug Released from Conjugate after 60 min: 83%
Human SMVT (SLC5A6)
  Vmax as a % of Biotin Vmax: 19%
Pancreatin
  % of Drug Released from Conjugate after 60 min: 25%
[7]
  % of Drug Released from Conjugate after 60 min: 65%

## NCC1(CC(=O)O)CCCCC1 [Gabapentin, reference compound]
hSMVT
  IC50: > 500 µM
Human SMVT (SLC5A6)
  Vmax as a % of Biotin Vmax: 0%

## O=C(O)CCCC[C@@H]1SC[C@@H]2NC(=O)N[C@@H]21 [biotin]
Human or rat SMVT
  Km: 5 to 20 µM
In vivo
  plasma concentration at the highest dose: ~4000 ng/mL
In vivo; 25 mg/kg
  bioavailability: 100%
In vivo; 200 mg/kg
  bioavailability: 27%

## CC(C)(CO)[C@@H](O)C(=O)NCCC(=O)[O-].[Na+] [pantothenate, sodium pantothenate]
In vivo
  plasma concentration at the highest dose: ~4000 ng/mL
In vivo; 25 mg/kg
  bioavailability: 35%
In vivo; 200 mg/kg
  bioavailability: 10%

## N-acetyl-D-Lys(ε-biotin)-D-Arg-D-Arg-D-Arg-D-Gln-D-Arg-D-Arg-D-Lys-D-Lys-D-Arg-NH2 [biotinylated decapeptide, reference compound]
Human SMVT (SLC5A6); 20 μM peptide, presence and absence of 100 mM Na+
  specific sodium-dependent current (SMVT substrate activity): no specific, sodium-dependent current
